Test results reported in patent US7498349B2, “Biaryl compounds having anti-infective activity” (Genesoft Pharmaceuticals, Inc., priority 2002, dated 2009).
Values after ≈ are worked out from the molar mass of the structure shown.

Assays:
[1] = tested on: E. faecalis ATCC 29212; experiment: MIC, NCCLS broth microdilution assay; type: cell-based, Enterococcus faecalis; details: E. faecalis ATCC 29212
[2] = tested on: S. epidermidis ATCC 12228; experiment: MIC, NCCLS broth microdilution assay; type: cell-based, Staphylococcus epidermidis
[3] = tested on: S. aureus ATCC 13709; experiment: MIC, NCCLS broth microdilution assay; type: cell-based, Staphylococcus aureus; details: S. aureus ATCC 13709, methicillin sensitive strain (MSSA)
[4] = tested on: S. pneumoniae ATCC 49619; experiment: MIC, NCCLS broth microdilution assay; type: cell-based, Streptococcus pneumoniae; details: S. pneumoniae ATCC 49619
[5] = tested on: S. aureus ATCC 27660; experiment: MIC, NCCLS broth microdilution assay; type: cell-based, Staphylococcus aureus; details: S. aureus ATCC 27660, methicillin resistant strain (MRSA)
[6] = tested on: C. albicans ATCC 38247; experiment: MIC, antifungal assay; type: cell-based, Candida albicans; details: C. albicans ATCC 38247
[7] = tested on: E. faecium (ATCC 51559, VRE); details: E. faecium ATCC 51559, vancomycin resistant strain (VRE)
Source text: (§1) In vitro biological activity data were collected for a variety of microorganisms, including Bacillus cereus (ATCC 11778), Staphylococcus aureus (ATCC 33591; ATCC 27660, a methicillin resistant strain (MRSA); ATCC 13709, a methicillin sensitive strain (MSSA)), Escherichia coli (ATCC 25922), Enterococcus faecalis (ATCC 29212), Streptococcus pneumoniae (ATCC 49619; ATCC 51422, a penicillin resistant strain (PRSP)), Enterococcus faecium (ATCC 51559, a vancomycin resistant strain (VRE)), and Staphylococcus epidermidis (ATCC 12228). Additionally, antifungal activity data were collected for Candida albicans (ATCC 38247).
(§2) Compounds according to this invention were screened for their in vitro activities against selected species of bacteria and fungi. The minimal inhibition concentration (MIC) of these compounds was determined using the National Committee for Clinical Laboratory Standards (NCCLS) broth microdilution assay in microtiter plates, as set forth in: (1) the guidelines of the National Committee for Clinical Laboratory Standards (NCCLS) Document M7-A4 (NCCLS, 1997); (2) the guidelines of the National Committee for Clinical Laboratory Standards (NCCLS) Document M11-A4 (NCCLS, 1997); and (3) the guidelines and reference method of the National Committee for Clinical Laboratory Standards (NCCLS) Document M27 -T (NCCLS, 1995). For antifungal assays, the method recommended in Murray, PR., 1995 Manual of Clinical Microbiology (ASM Press, Washington, D.C.), was employed.
(§3) (MIC values are keyed in the same manner as Table B.)

[8] = tested on: S. pneumoniae (ATCC 51422, PRSP); details: S. pneumoniae ATCC 51422, penicillin resistant strain (PRSP)
Source text: as §1, §2, §3

[9] = tested on: B. cereus ATCC 11778; experiment: MIC, NCCLS broth microdilution assay; type: cell-based, Bacillus cereus; details: B. cereus ATCC 11778
[10] = tested on: S. aureus ATCC 33591; experiment: MIC, NCCLS broth microdilution assay; type: cell-based, Staphylococcus aureus; details: S. aureus ATCC 33591
[11] = tested on: E. coli ATCC 25922; experiment: MIC, NCCLS broth microdilution assay; type: cell-based, Escherichia coli; details: E. coli ATCC 25922

Compound: NCCCNc1snc(C(=O)Nc2ccc(-c3cc4ccccc4o3)cc2)c1Cl [Compound A-2]
- Minimum Inhibitory Concentration (MIC) [1]: +++ (MIC ≦ 4)
- Minimum Inhibitory Concentration (MIC) [2]: +++ (MIC ≦ 4)
- Minimum Inhibitory Concentration (MIC) [3]: +++ (MIC ≦ 4)
- Minimum Inhibitory Concentration (MIC) [4]: + (12 ≦ MIC ≦ 32)
- Minimum Inhibitory Concentration (MIC) [5]: +++ (MIC ≦ 4)
- Minimum Inhibitory Concentration (MIC) [6]: ++ (4 < MIC < 12)
- Minimum Inhibitory Concentration (MIC) [7]: +++ (MIC ≦ 4)
- Minimum Inhibitory Concentration (MIC) [8]: + (12 ≦ MIC ≦ 32)
- Minimum Inhibitory Concentration (MIC) [9]: +++ (MIC ≦ 4)
- Minimum Inhibitory Concentration (MIC) [10]: +++ (MIC ≦ 4)
- Minimum Inhibitory Concentration (MIC) [11]: >32 µg/mL

Compound: NCCNc1snc(C(=O)Nc2ccc(-c3cc4ccccc4o3)cc2)c1Cl [Compound A-3]
- Minimum Inhibitory Concentration (MIC) [1]: +++ (MIC ≦ 4)
- Minimum Inhibitory Concentration (MIC) [2]: +++ (MIC ≦ 4)
- Minimum Inhibitory Concentration (MIC) [3]: +++ (MIC ≦ 4)
- Minimum Inhibitory Concentration (MIC) [4]: + (12 ≦ MIC ≦ 32)
- Minimum Inhibitory Concentration (MIC) [5]: +++ (MIC ≦ 4)
- Minimum Inhibitory Concentration (MIC) [6]: +++ (MIC ≦ 4)
- Minimum Inhibitory Concentration (MIC) [7]: +++ (MIC ≦ 4)
- Minimum Inhibitory Concentration (MIC) [8]: + (12 ≦ MIC ≦ 32)
- Minimum Inhibitory Concentration (MIC) [9]: + (12 ≦ MIC ≦ 32)
- Minimum Inhibitory Concentration (MIC) [10]: +++ (MIC ≦ 4)
- Minimum Inhibitory Concentration (MIC) [11]: >32 µg/mL

Compound: CN(C)CCCNc1snc(C(=O)Nc2ccc(-c3cc4ccccc4o3)cc2)c1Cl [Compound A-7]
- Minimum Inhibitory Concentration (MIC) [1]: +++ (MIC ≦ 4)
- Minimum Inhibitory Concentration (MIC) [2]: +++ (MIC ≦ 4)
- Minimum Inhibitory Concentration (MIC) [3]: +++ (MIC ≦ 4)
- Minimum Inhibitory Concentration (MIC) [4]: + (12 ≦ MIC ≦ 32)
- Minimum Inhibitory Concentration (MIC) [5]: +++ (MIC ≦ 4)
- Minimum Inhibitory Concentration (MIC) [6]: ++ (4 < MIC < 12)
- Minimum Inhibitory Concentration (MIC) [7]: +++ (MIC ≦ 4)
- Minimum Inhibitory Concentration (MIC) [8]: + (12 ≦ MIC ≦ 32)
- Minimum Inhibitory Concentration (MIC) [9]: +++ (MIC ≦ 4)
- Minimum Inhibitory Concentration (MIC) [10]: +++ (MIC ≦ 4)
- Minimum Inhibitory Concentration (MIC) [11]: >32 µg/mL

Compound: CN(CCCN)CCCNc1snc(C(=O)Nc2ccc(-c3cc4ccccc4o3)cc2)c1Cl [Compound A-8]
- Minimum Inhibitory Concentration (MIC) [1]: +++ (MIC ≦ 4)
- Minimum Inhibitory Concentration (MIC) [2]: +++ (MIC ≦ 4)
- Minimum Inhibitory Concentration (MIC) [3]: +++ (MIC ≦ 4)
- Minimum Inhibitory Concentration (MIC) [4]: + (12 ≦ MIC ≦ 32)
- Minimum Inhibitory Concentration (MIC) [5]: +++ (MIC ≦ 4)
- Minimum Inhibitory Concentration (MIC) [6]: ++ (4 < MIC < 12)
- Minimum Inhibitory Concentration (MIC) [9]: +++ (MIC ≦ 4)
- Minimum Inhibitory Concentration (MIC) [10]: +++ (MIC ≦ 4)
- Minimum Inhibitory Concentration (MIC) [11]: + (12 ≦ MIC ≦ 32)

Compound: CN(C)CCCNc1ncccc1C(=O)Nc1ccc(-c2cc3ccccc3o2)cc1 [Compound A-11]
- Minimum Inhibitory Concentration (MIC) [1]: +++ (MIC ≦ 4)
- Minimum Inhibitory Concentration (MIC) [2]: +++ (MIC ≦ 4)
- Minimum Inhibitory Concentration (MIC) [3]: +++ (MIC ≦ 4)
- Minimum Inhibitory Concentration (MIC) [4]: + (12 ≦ MIC ≦ 32)
- Minimum Inhibitory Concentration (MIC) [5]: +++ (MIC ≦ 4)
- Minimum Inhibitory Concentration (MIC) [6]: +++ (MIC ≦ 4)
- Minimum Inhibitory Concentration (MIC) [7]: +++ (MIC ≦ 4)
- Minimum Inhibitory Concentration (MIC) [8]: + (12 ≦ MIC ≦ 32)
- Minimum Inhibitory Concentration (MIC) [9]: +++ (MIC ≦ 4)
- Minimum Inhibitory Concentration (MIC) [10]: +++ (MIC ≦ 4)
- Minimum Inhibitory Concentration (MIC) [11]: >32 µg/mL

Compound: NCCCCNc1ncccc1C(=O)Nc1ccc(-c2cc3ccccc3o2)cc1 [Compound A-18]
- Minimum Inhibitory Concentration (MIC) [1]: ++ (4 < MIC < 12)
- Minimum Inhibitory Concentration (MIC) [2]: +++ (MIC ≦ 4)
- Minimum Inhibitory Concentration (MIC) [3]: +++ (MIC ≦ 4)
- Minimum Inhibitory Concentration (MIC) [4]: +++ (MIC ≦ 4)
- Minimum Inhibitory Concentration (MIC) [5]: +++ (MIC ≦ 4)
- Minimum Inhibitory Concentration (MIC) [6]: ++ (4 < MIC < 12)
- Minimum Inhibitory Concentration (MIC) [9]: +++ (MIC ≦ 4)
- Minimum Inhibitory Concentration (MIC) [10]: +++ (MIC ≦ 4)
- Minimum Inhibitory Concentration (MIC) [11]: >32 µg/mL

Compound: NCCNc1ncccc1C(=O)Nc1ccc(-c2cc3ccccc3o2)cc1 [Compound A-19]
- Minimum Inhibitory Concentration (MIC) [1]: +++ (MIC ≦ 4)
- Minimum Inhibitory Concentration (MIC) [2]: +++ (MIC ≦ 4)
- Minimum Inhibitory Concentration (MIC) [3]: +++ (MIC ≦ 4)
- Minimum Inhibitory Concentration (MIC) [4]: + (12 ≦ MIC ≦ 32)
- Minimum Inhibitory Concentration (MIC) [5]: +++ (MIC ≦ 4)
- Minimum Inhibitory Concentration (MIC) [6]: ++ (4 < MIC < 12)
- Minimum Inhibitory Concentration (MIC) [9]: +++ (MIC ≦ 4)
- Minimum Inhibitory Concentration (MIC) [10]: +++ (MIC ≦ 4)
- Minimum Inhibitory Concentration (MIC) [11]: >32 µg/mL

Compound: Cc1cc(NC(=O)c2nsc(NCCN3CCCCC3)c2Cl)ccc1-c1cc2ccccc2o1 [Compound A-32]
- MIC ([1]; Enterococcus faecalis, ATCC29212, read-out: Minimum Inhibitory Concentration (MIC)): < 4 µg/mL
- MIC ([2]; Staphylococcus epidermidis, ATCC12228, read-out: Minimum Inhibitory Concentration (MIC)): < 4 µg/mL
- MIC ([3]; Staphylococcus aureus, ATCC 13709 / MSSA, read-out: Minimum Inhibitory Concentration (MIC)): < 4 µg/mL
- MIC ([5]; Staphylococcus aureus, ATCC 27660 / MRSA, read-out: Minimum Inhibitory Concentration (MIC)): < 4 µg/mL
- MIC ([6]; Candida albicans, ATCC38247, read-out: Minimum Inhibitory Concentration (MIC)): 4 to 12 µg/mL (≈ 8.08 to 24.2 µM)
- MIC ([9]; Bacillus cereus, ATCC11778, read-out: Minimum Inhibitory Concentration (MIC)): > 32 µg/mL
- MIC ([10]; Staphylococcus aureus, ATCC33591, read-out: Minimum Inhibitory Concentration (MIC)): < 4 µg/mL
- MIC ([11]; Escherichia coli, ATCC25922, read-out: Minimum Inhibitory Concentration (MIC)): 12 to 32 µg/mL (≈ 24.2 to 64.6 µM)

Compound: Cc1cc(NC(=O)c2nsc(NCCCN)c2Cl)ccc1-c1cc2ccccc2o1 [Compound A-34]
- Minimum Inhibitory Concentration (MIC) [1]: +++ (MIC ≦ 4)
- Minimum Inhibitory Concentration (MIC) [2]: +++ (MIC ≦ 4)
- Minimum Inhibitory Concentration (MIC) [3]: +++ (MIC ≦ 4)
- Minimum Inhibitory Concentration (MIC) [4]: + (12 ≦ MIC ≦ 32)
- Minimum Inhibitory Concentration (MIC) [5]: +++ (MIC ≦ 4)
- Minimum Inhibitory Concentration (MIC) [6]: +++ (MIC ≦ 4)
- Minimum Inhibitory Concentration (MIC) [7]: +++ (MIC ≦ 4)
- Minimum Inhibitory Concentration (MIC) [8]: + (12 ≦ MIC ≦ 32)
- Minimum Inhibitory Concentration (MIC) [9]: +++ (MIC ≦ 4)
- Minimum Inhibitory Concentration (MIC) [10]: +++ (MIC ≦ 4)
- Minimum Inhibitory Concentration (MIC) [11]: >32 µg/mL

Compound: CN(C)CCCNc1snc(C(=O)Nc2ccc(-c3cc4ccccc4s3)cc2)c1Cl [Compound A-47]
- Minimum Inhibitory Concentration (MIC) [1]: +++ (MIC ≦ 4)
- Minimum Inhibitory Concentration (MIC) [2]: +++ (MIC ≦ 4)
- Minimum Inhibitory Concentration (MIC) [3]: +++ (MIC ≦ 4)
- Minimum Inhibitory Concentration (MIC) [4]: >32 µg/mL
- Minimum Inhibitory Concentration (MIC) [5]: +++ (MIC ≦ 4)
- Minimum Inhibitory Concentration (MIC) [6]: +++ (MIC ≦ 4)
- Minimum Inhibitory Concentration (MIC) [9]: >32 µg/mL
- Minimum Inhibitory Concentration (MIC) [10]: +++ (MIC ≦ 4)
- Minimum Inhibitory Concentration (MIC) [11]: >32 µg/mL

Compound: O=C(Nc1ccc(-c2cc3ccccc3s2)cc1)c1cccnc1NCCN1CCCC1 [Compound A-49]
- Minimum Inhibitory Concentration (MIC) [1]: +++ (MIC ≦ 4)
- Minimum Inhibitory Concentration (MIC) [2]: +++ (MIC ≦ 4)
- Minimum Inhibitory Concentration (MIC) [3]: +++ (MIC ≦ 4)
- Minimum Inhibitory Concentration (MIC) [4]: + (12 ≦ MIC ≦ 32)
- Minimum Inhibitory Concentration (MIC) [5]: +++ (MIC ≦ 4)
- Minimum Inhibitory Concentration (MIC) [6]: +++ (MIC ≦ 4)
- Minimum Inhibitory Concentration (MIC) [9]: +++ (MIC ≦ 4)
- Minimum Inhibitory Concentration (MIC) [10]: +++ (MIC ≦ 4)
- Minimum Inhibitory Concentration (MIC) [11]: >32 µg/mL

Compound: CN(C)CCCNc1ncccc1C(=O)Nc1ccc(-c2cc3ccccc3s2)cc1 [Compound A-50]
- Minimum Inhibitory Concentration (MIC) [1]: +++ (MIC ≦ 4)
- Minimum Inhibitory Concentration (MIC) [2]: +++ (MIC ≦ 4)
- Minimum Inhibitory Concentration (MIC) [3]: +++ (MIC ≦ 4)
- Minimum Inhibitory Concentration (MIC) [4]: + (12 ≦ MIC ≦ 32)
- Minimum Inhibitory Concentration (MIC) [5]: +++ (MIC ≦ 4)
- Minimum Inhibitory Concentration (MIC) [6]: +++ (MIC ≦ 4)
- Minimum Inhibitory Concentration (MIC) [9]: +++ (MIC ≦ 4)
- Minimum Inhibitory Concentration (MIC) [10]: +++ (MIC ≦ 4)
- Minimum Inhibitory Concentration (MIC) [11]: >32 µg/mL
